Patent US12161657B2, “Combinatorial therapy for use in inducing immunogenic cell death in cancer cells” (priority 2021, dated 2024)
pEC50: −log10 of the molar value.

Legend:
[1] = 2-DG used alone; cited from earlier work
[2] = 2-DG administration, patients; cited from earlier work
[3] = tested on: 4T1 (mouse breast cancer); assay: MTS cell viability assay, 4T1 cells; assay type: cell-based; conditions: for efficacy in killing cancer cells: 4T1, concentration 6× lower than the ED50 concentrations, FIG. 3a; for pEC50: Mus musculus, 4T1, MTS, 48 hours, individual drug, read-out: ED50 in 4T1
Method: (§1) The 50% effective dose (or ED50) for 2-DG, MTX, and WGN (individually) against the cancer cell lines 4T1 (mouse breast cancer), MCF-7 (human breast cancer), THP-1 (human myelomonocytic cancer), and B16-F10 (mouse melanoma) was determined (Table 1). The cell lines were specifically chosen for their extremely aggressive nature. For example, the cell lines have evolved multiple mechanisms of resistance to cell death and are highly metastatic (e.g., equivalent to a stage 4 cancer model). In this assay, a Determination of the ED50 using the MTS cell viability assay
(§2) Analysis of the effects of MTX-2DG-WGN combination on cell growth was performed with an MTS kit (CellTiter 96® AQueous One Solution Cell Proliferation Assay Kit, Promega, Madison, WI, USA) according to the manufacturer's instruction. 4-T1, MCF-7, B16-F10, and THP-1 cells were seeded into 96-well plates at a density of 10×10^3 cells per well with three replicates. The cells were treated as indicated (MTX, 2DG, and WGN were added initially at concentrations of 100 μM, 50 mM, and 200 μM, respectively, followed by serial two-fold dilutions) and incubated for 48 hours at 5% CO2 at 37° C. After 48 h, 20 μL of CellTiter 96® AQueous One Solution MTS (5 mg/mL) (Promega—Madison, WI, USA) was added to each well and incubated at 5% CO2 at 37° C. for an additional 4 hours. Absorbance readings were taken in an Epoch microplate reader at 490 nm. Computed data was compared to untreated and normalized cells. Cells that were not administered any treatment were considered the control group. Cell viability was calculated by the following formula: Cell viability (%)=(average OD in treated group/average OD in control group)×100%. A dose-activity curve with the concentration spectrum was prepared.
(§3) The EC50 was extrapolated from the dose-response graph. The drug concentration that caused 50% maximum effect with regards to cytotoxicity was determined by plotting triplicate data points over a concentration range and calculating values using regression analysis of GraphPad PRISM v8 program.
(§4) MTX, 2-DG, and WGN were tested alone and in combination. […] The combination of all 3 compounds was also tested, along with a negative control (untreated). The results are shown for 4T1 mouse breast cancer cells (FIG. 3a) and MCF7 human breast cancer cells (FIG. 3b).
(§5) The testing protocol was the same as that described for the ED50 noted above.

[4] = tested on: MCF-7 (human breast cancer); assay: MTS cell viability assay, MCF-7 cells; assay type: cell-based; conditions: for efficacy in killing cancer cells: MCF7, concentration 6× lower than the ED50 concentrations, FIG. 3b; for pEC50: Homo sapiens, MCF7, MTS, 48 hours, individual drug, read-out: ED50 in MCF-7
Method: as §1, §2, §3, §4, §5

B16-F10 (mouse melanoma) = assay: MTS cell viability assay, B16-F10 cells; assay type: cell-based; conditions: 48 hours, individual drug, read-out: ED50 in B16-F10
Method: as §1
(§6) Analysis of the effects of MTX-2DG-WGN combination on cell growth was performed with an MTS kit (CellTiter 96® AQueous One Solution Cell Proliferation Assay Kit, Promega, Madison, WI, USA) according to the manufacturer's instruction. […] Absorbance readings were taken in an Epoch microplate reader at 490 nm. […] Cell viability was calculated by the following formula: Cell viability (%)=(average OD in treated group/average OD in control group)×100%. […]
(§7) The EC50 was extrapolated from the dose-response graph. The drug concentration that caused 50% maximum effect with regards to cytotoxicity was determined by plotting triplicate data points over a concentration range and calculating values using regression analysis of GraphPad PRISM v8 program. […]

[5] = tested on: THP-1 (human myelomonocytic cancer); assay: MTS cell viability assay, THP-1 cells; assay type: cell-based; conditions: 48 hours, individual drug, read-out: ED50 in THP-1
Method: as §1, §6, §7

[6] = tested on: dihydrofolate reductase (DHFR); conditions: cited from earlier work
[7] = tested on: 4T1 mouse breast cancer cells 3D cancerspheres; assay: 3D cancersphere viability, 4T1; assay type: cell-based; conditions: 4T1 cancerspheres, 48 h treatment; doxorubicin 25 μM, FIGS. 7a, 7b
Method: (§8) A new model for tumor growth in vitro has been established as 3D cultures known as cancerspheres. To evaluate the clinical translatability and predictivity of the novel combinatorial therapy in vivo, 3D cancerspheres suspended in media containing extracellular matrix proteins (ECM) were treated with the combination of MTX, 2-DG, and WGN.
(§9) Mammary tumorspheres were grown using Matrigel® Extracellular Matrix Basement Membrane (Corning, USA). […]
(§10) After 8 days of culture and 48 h treatment, tumorspheres of roughly 50 cells or more were selected for qualitative analysis. […] After 5 min, tumorspheres were analyzed microscopically. […] Dead (non-viable) spheroids were characterized as stained and displaying no luminescence.
(§11) On the 8th day of culture, media from MCF-7 and 4-T1 mammary tumorsphere cultures was changed and cells were then treated with either our novel combinatorial therapy or 25 μM doxorubicin. […] Absorbance readings were taken in an Epoch microplate reader at 490 nm. […] Cell viability was calculated by the following formula: Cell viability (%)=(average OD in treated group/average OD in control group)×100%.

[8] = tested on: MCF-7 human breast cancer cells 3D cancerspheres; assay: 3D cancersphere viability, MCF-7; assay type: cell-based; conditions: MCF-7 cancerspheres, 48 h treatment; doxorubicin 25 μM, FIGS. 7c, 7d
Method: as §8, §9, §10, §11

| pEC50 (B16-F10 (mouse melanoma)) | pEC50 [5] | pEC50 [3] | pEC50 [4] | SMILES | concentration needed to be effective when used alone [1] [mM] | doses at which adverse effects occur [2] | efficacy in killing cancer cells [3] | efficacy in killing cancer cells [4] | affinity for DHFR relative to folate [6] | efficacy against 3D cancerspheres [7] | efficacy against 3D cancerspheres [8] |
| --- | --- | --- | --- | --- | --- | --- | --- | --- | --- | --- | --- |
|  |  |  |  | OCC1O[C@H](O)C[C@@H](O)[C@@H]1O (mixture of isomers) [2-DG, 2-deoxyglucose] | > 5 | above 63 mg/kg | no effect whatsoever | no effect whatsoever |  |  |  |
| 7.72 | 5.74 | 7.31 | 7.31 | CN(Cc1cnc2nc(N)nc(N)c2n1)c1ccc(C(=O)N[C@@H](CCC(=O)O)C(=O)O)cc1 [MTG, Methotrexate] |  |  | no effect whatsoever | no effect whatsoever | about 1000 fold |  |  |
| 4.12 | 4.08 | 4.07 | 4.69 | COc1c(O)cc(O)c2c(=O)cc(-c3ccccc3)oc12 [WGN, Wogonin] |  |  | no effect whatsoever | no effect whatsoever |  |  |  |
|  |  |  |  | COc1cccc2c1C(=O)c1c(O)c3c(c(O)c1C2=O)C[C@@](O)(C(=O)CO)C[C@@H]3O[C@H]1C[C@H](N)[C@H](O)[C@H](C)O1 [doxorubicin] |  |  |  |  |  | resistant | resistant |
